# Measured values reported in the supplement of paper PMC10307832.
# Key:
# Assay in all cases: relative viability (nuclei count vs DMSO), 5 days (fraction); higher = more cells survive
# Imatinib + Foretinib = compound: Cc1ccc(NC(=O)c2ccc(CN3CCN(C)CC3)cc2)cc1Nc1nccc(-c2cccnc2)n1 [Imatinib] + COc1cc2c(Oc3ccc(NC(=O)C4(C(=O)Nc5ccc(F)cc5)CC4)cc3F)ccnc2cc1OCCCN1CCOCC1 [Foretinib] (partner 0.25 µM)
# Summary of the method: (§1)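 Five library-drug doses in √10 steps were combined with a fixed anchor-drug dose, or a single drug was given alone, by pin tool to lung cancer cell lines in 1536-well plates the day after seeding. Nuclei were stained and counted after 5 days. Relative viability is the nuclei count in treated wells over that in vehicle wells, taken as the median of duplicate plates.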
# Imatinib + Olaparib = compound: Cc1ccc(NC(=O)c2ccc(CN3CCN(C)CC3)cc2)cc1Nc1nccc(-c2cccnc2)n1 [Imatinib] + O=C(c1cc(Cc2n[nH]c(=O)c3ccccc23)ccc1F)N1CCN(C(=O)C2CC2)CC1 [Olaparib] (partner 8 µM)
# Summary of the method: as §1
# Imatinib + Pemetrexed = compound: Cc1ccc(NC(=O)c2ccc(CN3CCN(C)CC3)cc2)cc1Nc1nccc(-c2cccnc2)n1 [Imatinib] + Nc1nc2[nH]cc(CCc3ccc(C(=O)N[C@@H](CCC(=O)O)C(=O)O)cc3)c2c(=O)[nH]1 [Pemetrexed] (partner 0.2 µM)
# Summary of the method: as §1
# Imatinib = compound: Cc1ccc(NC(=O)c2ccc(CN3CCN(C)CC3)cc2)cc1Nc1nccc(-c2cccnc2)n1 [Imatinib]
# Summary of the method: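 Viability is treated-well nuclei as a fraction of vehicle-well nuclei, reported as the median across plates. Before counting, lung cancer cell lines were kept overnight at 37 °C in 1536-well plates, pinned with five √10-spaced library-drug doses on vehicle-anchored plates, and left 5 days without medium change, then fixed, permeabilised and Hoechst-stained in one step, imaged at 4× and counted by MetaXpress. A plate passed only if control CV was below 25% and at least one doubling occurred.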
Cell Line,relative viability (Imatinib + Foretinib; first compound 0.02 µM),relative viability (Imatinib + Foretinib; first compound 0.06325 µM),relative viability (Imatinib + Foretinib; first compound 0.2 µM),relative viability (Imatinib + Foretinib; first compound 0.6325 µM),relative viability (Imatinib + Foretinib; first compound 2 µM),relative viability (Imatinib + Olaparib; first compound 0.02 µM),relative viability (Imatinib + Olaparib; first compound 0.06325 µM),relative viability (Imatinib + Olaparib; first compound 0.2 µM),relative viability (Imatinib + Olaparib; first compound 0.6325 µM),relative viability (Imatinib + Olaparib; first compound 2 µM),relative viability (Imatinib + Pemetrexed; first compound 0.02 µM),relative viability (Imatinib + Pemetrexed; first compound 0.06325 µM),relative viability (Imatinib + Pemetrexed; first compound 0.2 µM),relative viability (Imatinib + Pemetrexed; first compound 0.6325 µM),relative viability (Imatinib + Pemetrexed; first compound 2 µM),relative viability (Imatinib; 0.02 µM),relative viability (Imatinib; 0.06325 µM),relative viability (Imatinib; 0.2 µM),relative viability (Imatinib; 0.6325 µM),relative viability (Imatinib; 2 µM)
NCI-H1651,0.902,0.619,0.87,0.79,0.77,0.173,0.231,0.177,0.19,0.166,0.617,0.339,0.586,0.58,0.555,1.1,0.876,1.03,0.967,0.948
NCI-H1944,0.923,0.946,0.964,0.851,0.852,0.448,0.337,0.414,0.394,0.459,0.881,0.642,0.695,0.656,0.561,0.974,0.706,0.977,0.969,0.951
COR-L 105,1.2,1.23,,0.948,1.08,0.873,0.663,0.678,0.724,0.665,1.33,1.27,1.13,1.06,0.983,1.06,0.979,1,0.891,0.9
NCI-H1648,,,,,,0.958,0.633,0.971,0.307,0.776,0.722,0.642,0.721,0.543,0.673,0.744,0.627,0.699,0.421,0.618
RERF-LC-KJ,0.909,0.757,,0.794,0.834,1.03,0.933,1.1,,0.898,0.448,0.369,0.507,0.487,0.43,1.1,0.884,1.06,0.985,0.953
NCI-H3122,0.879,1.12,,0.887,0.984,0.71,0.618,0.701,0.693,0.66,0.202,0.211,0.198,0.185,0.2,1.02,,1.1,1.03,1.08
LU99A,0.772,0.879,0.894,0.857,0.772,0.272,0.254,0.235,0.29,0.274,0.161,0.206,0.157,0.232,0.313,1.03,1.05,0.977,0.964,1.17
ChaGo-K-1,0.921,0.936,0.916,0.916,0.958,0.389,,0.394,0.42,0.45,0.263,,0.255,0.268,0.251,1.02,0.794,1.01,,0.949
HOP-62,1.27,,1.23,0.994,1.12,0.408,0.478,0.456,0.498,0.372,0.302,,0.356,0.29,0.317,1.15,,1.2,0.999,0.943
